From patent US11389423B2, “Pharmaceutical composition, excipient for the composition and use of the composition” (priority 2018, dated 2022)

How the values were obtained:
[1] = system: DNA of male and female rats; details: rats male and female, 20 mg/kg intraperitoneally, 24 hours, positive control
Description: The negative control group received placebo by gavage and the positive control was treated with cyclophosphamide monohydrate (20 mg/kg—Sigma-Aldrich) intraperitoneally.

[2] = system: polychromatic erythrocytes; details: rats male and female, 20 mg/kg intraperitoneally
Description: To perform the micronucleus test (Schmid, 1976), different groups of rats (male and female; n=10) received three doses of CBD (500, 1000 and 2000 mg/kg) orally. The negative control group received placebo by gavage and the positive control was treated with cyclophosphamide monohydrate (20 mg/kg—Sigma-Aldrich) intraperitoneally. After 24 hours (cyclophosphamide) and 48 hours (CBD-SINT and vehicle) the end of treatments, the animals were euthanized by decapitation. The femurs were removed, the proximal epiphysis was removed to expose the medullary canal and, with the aid of a 13×4.5 mm needle and 3 mL NaCl solution (150 mM), the marrow was removed, washing the medullary canal with NaCl solution. The material was transferred to glass tubes and centrifuged at 1000 rpm/5 min. After centrifugation, the supernatant was discarded, and the deposit was resuspended with a 4% formaldehyde solution and slightly homogenized with the aid of a Pasteur pipette. A drop of this cell suspension was placed on a clean, dry slide, and then the smear was performed. The slides were dried at room temperature and, after 24 hours, stained with Leishman eosin-methylene blue and subjected to microscopic analysis. To determine the number of micronuclei, 2000 polychromatic erythrocytes were counted per animal (1000 in each slide) using an optical microscope, at 400× magnification. The analysis of the slides was blind and performed by a single evaluator.

O=P1(N(CCCl)CCCl)NCCCO1 (stereo not shown) [cyclophosphamide, cyclophosphamide monohydrate, reference compound]
increase in the frequency of damage [1]: approximately 100%
increase in the index of damage [1]: approximately 100%
average number of MNPCE ([2]; 24 hours, positive control (C+)): significant increase
ratio of polychromatic/normochromatic erythrocytes (PCE/NCE ratio) ([2]; positive control): significantly changed
